# Entries after “also recorded” stand apart in the source; their conditions may differ. Counter-ions that a name gives are not always drawn.
# Tests used:
# neutrophils = conditions: normoxic conditions; cited from earlier work
# human neutrophils = assay: Neutrophil survival rate by flow cytometry (Annexin V-/PI-) upon storage; format: cell-based; conditions: for neutrophil survival rate (Annexin V-/PI-): 3 mM glucose, 32 μg/mL DMOG
# Procedure: Neutrophils fractions with a >95% purity obtained by applying Method 1 or Method 2 were resuspended at a 5×10^6 cells/mL concentration in RPMI 1640 with L Glutamine and 25 mM Hepes (Gibco, Life Technologies), 10% of heat inactivated Foetal Bovine Serum (FBS) (Invitrogen, Gibco) and indicated concentrations of glucose (Sigma-Aldrich) and Dimethyloxalylglycine or DMOG (Cayman Chemical Company). For comparative experiments aiming at characterizing the role of oxygen on neutrophils survival, purified neutrophils (Method 1 or Method 2) were split in two identical fractions. One was stored at 37° C. with 5% CO2 under atmospheric conditions (20% O2 condition, +O2). The second one was stored at 37° C. in an anoxic chamber ([…], Don […]) under an atmosphere containing 90% N2, 5% CO2 and 5% H2 (0% O2 condition, -O2), during indicated time. Cell viability. For neutrophil survival analysis, human neutrophils (1×10^6) were washed twice in PBS and then resuspended in 1 ml of Annexin V binding Buffer. A 100 μl sample (1×10^5 cells) was stained with 5 μl of APC-Annexin V and 5 μl of Propidium iodide (PI) (0.5 μg/ml final concentration) as recommended by the manufacturer. At least 10^4 events were acquired for each condition on a FACSCaliburTM flow cytometer (BD Biosciences), and data were analyzed using CellQuestTM Pro Software (BD Biosciences). Viable cells were defined as Annexin V-/PI- quantifications. In this study, neutrophil survival rate was evaluated in various conditions by flow cytometry, by quantifying the proportion of viable (propidium iodide negative staining, PI-) and non-apoptotic (Annexin V negative staining, Annexin V-) cells.
smiles,measurement,setting,value
"COC(=O)CNC(=O)C(=O)OC [DMOG, Dimethyloxalylglycine]",effect on neutrophil apoptosis,neutrophils,decreases apoptosis
same,neutrophil survival rate (Annexin V-/PI-),"human neutrophils; citrate (Method 2), anoxia, 20 h",70±8%
same,neutrophil survival rate (Annexin V-/PI-),"human neutrophils; citrate (Method 2), anoxia, 48 h",49±2%
same,neutrophil survival rate (Annexin V-/PI-),"human neutrophils; heparin (Method 1), absence of oxygen, 20 h storage",54+10%
same,neutrophil survival rate (Annexin V-/PI-),"human neutrophils; heparin (Method 1), absence of oxygen, 48 h storage",14+10%
O=C(O)CN(CCN(CC(=O)O)CC(=O)O)CC(=O)O [EDTA],neutrophils survival as compared to citrate at blood collection,human neutrophils; blood collected with EDTA instead of citrate,even better results
"O=C(O)CC(O)(CC(=O)O)C(=O)O [citrate, sodium citrate]",neutrophils survival rate as compared to heparin as anticoagulant,"human neutrophils; blood collected with citrate, presence or absence of oxygen, 20 h and 48 h post purification",significant increase of neutrophils survival rate; also recorded: improved
